The values below come from patent publication US9796711B2, “Substituted pyrazolo[3,4-b]pyridin-6-carboxylic acids and method of use” (AbbVie S.àr.l., priority 2015, dated 2017).

Assay [1] deals with T1, CFTR ΔF508 (Homo sapiens, UniProt P13569, DEL508-508).
T1 construct: bronchial epithelial cells isolated from CF patients homozygous for the CFTR ΔF508 mutation; McGill University; Asterand; University of North Carolina hAEC-CF; host or cells: primary human bronchial epithelial cells from CF patients homozygous for ΔF508
T1 sequence (P13569 with tags, fused parts or gaps DEL508-508): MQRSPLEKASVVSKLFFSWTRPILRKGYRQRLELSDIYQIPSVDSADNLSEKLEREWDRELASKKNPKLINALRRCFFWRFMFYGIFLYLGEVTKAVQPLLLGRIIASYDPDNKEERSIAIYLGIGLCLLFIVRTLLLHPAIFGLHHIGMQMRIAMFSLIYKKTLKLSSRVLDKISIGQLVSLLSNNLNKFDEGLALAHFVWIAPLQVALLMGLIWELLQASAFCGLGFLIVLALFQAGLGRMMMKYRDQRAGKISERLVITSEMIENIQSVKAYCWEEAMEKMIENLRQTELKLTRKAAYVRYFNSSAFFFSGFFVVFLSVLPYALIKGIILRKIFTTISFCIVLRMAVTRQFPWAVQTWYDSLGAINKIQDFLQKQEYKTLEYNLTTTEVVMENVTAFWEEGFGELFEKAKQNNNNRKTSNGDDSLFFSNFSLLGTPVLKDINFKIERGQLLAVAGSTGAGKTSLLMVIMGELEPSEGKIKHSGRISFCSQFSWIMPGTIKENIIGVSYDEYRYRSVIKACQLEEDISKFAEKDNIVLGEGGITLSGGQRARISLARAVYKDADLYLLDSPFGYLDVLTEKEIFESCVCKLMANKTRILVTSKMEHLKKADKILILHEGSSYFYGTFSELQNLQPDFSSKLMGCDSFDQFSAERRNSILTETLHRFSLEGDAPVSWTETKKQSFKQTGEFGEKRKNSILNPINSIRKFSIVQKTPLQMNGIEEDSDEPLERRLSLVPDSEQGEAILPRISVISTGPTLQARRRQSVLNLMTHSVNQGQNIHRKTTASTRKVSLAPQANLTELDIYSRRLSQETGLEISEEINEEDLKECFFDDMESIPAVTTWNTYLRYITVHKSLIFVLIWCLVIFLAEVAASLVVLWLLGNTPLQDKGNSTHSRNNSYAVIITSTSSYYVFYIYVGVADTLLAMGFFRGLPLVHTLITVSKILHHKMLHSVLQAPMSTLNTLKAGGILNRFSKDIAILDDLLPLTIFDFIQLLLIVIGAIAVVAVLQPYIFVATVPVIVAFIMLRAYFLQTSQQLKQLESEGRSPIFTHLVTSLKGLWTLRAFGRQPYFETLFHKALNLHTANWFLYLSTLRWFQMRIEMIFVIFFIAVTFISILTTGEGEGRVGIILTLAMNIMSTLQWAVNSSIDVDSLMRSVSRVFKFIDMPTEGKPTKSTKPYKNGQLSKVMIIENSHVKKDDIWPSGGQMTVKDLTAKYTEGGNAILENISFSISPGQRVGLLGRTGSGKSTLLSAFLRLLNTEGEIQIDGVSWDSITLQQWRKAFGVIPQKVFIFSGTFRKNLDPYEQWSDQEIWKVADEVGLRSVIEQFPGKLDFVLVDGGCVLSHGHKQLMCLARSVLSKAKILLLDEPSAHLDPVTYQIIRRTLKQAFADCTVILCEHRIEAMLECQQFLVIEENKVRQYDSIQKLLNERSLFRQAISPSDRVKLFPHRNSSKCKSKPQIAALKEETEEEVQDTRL
Description: Acute TECC assay on primary bronchial epithelial cells, with and without co-corrector. The format is cell-based. Conditions: normalized to DMSO and positive control; for % Activity at 10 μM (Ieq*): bronchial epithelial cells from CF patients homozygous for CFTR ΔF508, 10 μM test compound for 24 h, without co-corrector, Ieq based on the maximum current; for % Activity at 3 μM with co-corrector (Ieq): bronchial epithelial cells from CF patients homozygous for CFTR ΔF508, 3 μM test compound for 24 h. The method, then:
Primary Bronchial Epithelial Cells Protocol
The TECC (Tranepithelial Clamp Circuit, EP-design) assay measures the functionality of the cystic fibrosis Transmembrane Conductance regulator (CFTR) by measuring the short circuit current (Isc) generated over the basolateral and apical membrane of lung epithelial cells. In TECC the transepithelial potential PD and transepithelial resistance (Rt)) are measured in an open circuit and transformed to Ieq using Ohm's law. 24 Wells can be measured simultaneously allowing a higher throughput compared to Ussing chambers.
For this purpose, bronchial epithelial cells isolated from CF patients homozygous for the CFTR ΔF508 mutation (hAEC-CF, Epithelix, Geneva, Switzerland; McGill University, Montreal, Qc; Asterand, Detroit, Mich.; University of North Carolina, Chapel Hill, N.C.) are plated on type IV collagen-coated Transwell® supports (Costar). Human airway epithelia are generated by provision of an air-liquid interface for 21 days to form well-differentiated polarized cultures that resemble in vivo pseudo-stratified ciliated epithelium (Fulcher, M. L., Gabriel, S., Burns, K. A., Yankaskas, J. R., Randell, S. H., 2005. Well-differentiated human airway epithelial cell cultures. Methods Mol. Med. 107, 183-206). The differentiated cells are treated with test corrector compound(s) (corrector alone or in combination with co-corrector, 4-[(2R,4R)-4-({[1-(2,2-difluoro-1,3-benzodioxol-5-yl)cyclopropyl]carbonyl}amino)-7-methoxy-3,4-dihydro-2H-chromen-2-yl]benzoic acid (G924806/A-1618261) (“acute”) or test corrector compounds, co-corrector and potentiator, N-(3-carbamoyl-5,5,7,7-tetramethyl-4,7-dihydro-5H-thieno[2,3-c]pyran-2-yl)-1H-pyrazole-5-carboxamide GLPG1837, (“chronic”) for 24 hours basolaterally to allow sufficient expression of properly folded CFTR protein on the membrane. All compound plates contained negative controls (DMSO) and positive controls (0.15 μM, 4-[(2R,4R)-4-({[1-(2,2-difluoro-1,3-benzodioxol-5-yl)cyclopropyl]carbonyl}amino)-7-(difluoromethoxy)-3,4-dihydro-2H-chromen-2-yl]benzoic acid).
For electrophysiological recording of the “acute” experiments, the human airway epithelia are mounted in the TECC heating plate and kept at 37° C. The epithelia are bathed in a NaCl-Ringer solution (120 mM NaCl, 25 mM NaHCO3, 1.2 mM CaCl2, 1.2 mM MgCl2, 0.8 mM KH2PO4, 0.8 mM K2HPO4, pH 7.4, 5 mM glucose) on both the basolateral and apical sides. Apical amiloride is used to inhibit the endogenous epithelial sodium channel (ENaC) currents while forskolin is applied on both apical and basolateral side to stimulate CFTR. CFTR activity is measured by addition of forskolin followed by addition of a potentiator, N-(3-carbamoyl-5,5,7,7-tetramethyl-4,7-dihydro-5H-thieno[2,3-c]pyran-2-yl)-1H-pyrazole-5-carboxamide, on both sides. Measurements are done during a 20 minute timeframe with recordings every 2 minutes. The increase in Ieq is used as a measure for the increased CFTR activity, EC50 values can be generated by measuring impact of different concentrations of compound on Ieq on primary cells, for this purpose each transwell is treated with a different compound concentration for 24 hours. Inhibitor-172, an inhibitor specific for CFTR, is used to test the specificity of the tested compounds. Raw data were normalized to percentage activity values using the equation: 100×(Sample−Negative control)/(Positive control−Negative Control).

Assay [2] concerns the target T1, CFTR ΔF508. Put plainly: Chronic TECC assay on primary bronchial epithelial cells (corrector, co-corrector and potentiator). Type of assay: cell-based. Conditions: for % Activity at 1 μM (AUC**): AUC = full area under the curve upon forskolin stimulation. In a few lines:
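Differentiated airway epithelia from CFTR ΔF508-homozygous CF patients (21 days air-liquid interface) were treated basolaterally for 24 h with corrector plus co-corrector and potentiator; compounds were re-added before TECC recording at 37 °C in NaCl-Ringer, pH 7.4. Forskolin-stimulated Ieq increase after apical amiloride, normalized to DMSO and positive controls; EC50 from concentration series.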

[3] abbreviates: chronic TECC, Ieq = calculations based on the maximum current, with co-corrector and potentiator, 24 hours.
The mark [4] stands for this setting: chronic TECC, Ieq = calculations based on the maximum current, with co-corrector and potentiator, 24 hours, read-out: EC50 (nM) (Ieq).
Where [5] appears, read: chronic TECC, with co-corrector and potentiator, 24 hours.

Read-outs that look alike come from different tables or passages of the source. Bounds are passed on as bounds.

One may read the EC50 as the concentration giving half of the maximal effect.

Take `Cc1nn(-c2ccccc2)c2nc(C(=O)O)cc(N3CCCCC3)c12` [compound 123, 3-methyl-1-phenyl-4-(piperidin-1-yl)-1H-pyrazolo[3,4-b]pyridine-6-carboxylic acid]: the “% Activity at 10 μM (Ieq*)” value at CFTR ΔF508 [1] is listed as 100.6%. As for `CC(C)c1nn(C2CCCCC2)c2nc(C(=O)O)cc(-c3ccc(N(C)C4CCOCC4)nc3)c12` [compound 169, 1-cyclohexyl-4-{6-[methyl(oxan-4-yl)amino]pyridin-3-yl}-3-(propan-2-yl)-1H-pyrazolo[3,4-b]pyridine-6-carboxylic acid], on CFTR ΔF508 [1], the “% Activity at 3 μM with co-corrector (Ieq)” value (from here on “% Activity at 3 μM”) amounted to 279.1%. Regarding `CC(C)c1nn(-c2cccc(N3CCOCC3)c2)c2nc(C(=O)O)cc(-c3ccc(N(C)C)nc3)c12` [compound 89, 4-[6-(dimethylamino)pyridin-3-yl]-1-[3-(morpholin-4-yl)phenyl]-3-(propan-2-yl)-1H-pyrazolo[3,4-b]pyridine-6-carboxylic acid], the “% Activity at 10 μM (Ieq*)” value on CFTR ΔF508 [1] is reported as 147.6%. Turning to `N#CC1CCN(c2ccc(-c3cc(C(=O)O)nc4c3c(C3CCC3)nn4C3CCCCC3)cn2)CC1` [compound 220, 4-[6-(4-cyanopiperidin-1-yl)pyridin-3-yl]-3-cyclobutyl-1-cyclohexyl-1H-pyrazolo[3,4-b]pyridine-6-carboxylic acid], the “% Activity at 3 μM” value at CFTR ΔF508 [1] was determined as 122.9%. Also, at CFTR ΔF508 [2] (setting [3]), the “% Activity at 1 μM (Ieq*)” value is 720%. Moreover, the EC50 on CFTR ΔF508 [2] (setting [4]) is 120 nM.

On to `CC(C)c1nn(-c2cccc(N3CCC3)c2)c2nc(C(=O)O)cc(-c3ccc(N4CCOCC4)cc3)c12` [compound 151, 1-[3-(azetidin-1-yl)phenyl]-4-[4-(morpholin-4-yl)phenyl]-3-(propan-2-yl)-1H-pyrazolo[3,4-b]pyridine-6-carboxylic acid], for which the “% Activity at 10 μM (Ieq*)” value on CFTR ΔF508 [1] came to 100.6%. Turning to `CC(C)c1nn(-c2cccc(N3CCCC3)c2)c2nc(C(=O)O)cc(-c3ccc(N4CCC(C#N)CC4)nc3)c12` [compound 222, 4-[6-(4-cyanopiperidin-1-yl)pyridin-3-yl]-3-(propan-2-yl)-1-[3-(pyrrolidin-1-yl)phenyl]-1H-pyrazolo[3,4-b]pyridine-6-carboxylic acid], at CFTR ΔF508 [1], the “% Activity at 3 μM” value worked out at 221.3%. Take `Cc1cccc(-n2nc(C(C)C)c3c(N4CCC(CO)CC4)cc(C(=O)O)nc32)c1` [compound 213, 4-[4-(hydroxymethyl)piperidin-1-yl]-1-(3-methylphenyl)-3-(propan-2-yl)-1H-pyrazolo[3,4-b]pyridine-6-carboxylic acid]: on CFTR ΔF508 [1], the “% Activity at 3 μM” value was 199.4%. Besides, the “% Activity at 1 μM (Ieq*)” value at CFTR ΔF508 [2] (setting [3]) is reported as 390%. Moreover, the EC50 at CFTR ΔF508 [2] (setting [4]) was over 300 nM. For the compound `CCOC(=O)N1CCN(c2cc(C(=O)O)nc3c2c(C2CCC2)nn3-c2ccccc2)CC1` [compound 539, 3-cyclobutyl-4-[4-(ethoxycarbonyl)piperazin-1-yl]-1-phenyl-1H-pyrazolo[3,4-b]pyridine-6-carboxylic acid], at CFTR ΔF508 [2] (setting [5]), the “% Activity at 1 μM (AUC**)” value is on record as 557%. `COCC1CCN(c2cc(C(=O)O)nc3c2c(C(C)C)nn3-c2cccc(C)c2)CC1` [compound 227, 4-[4-(methoxymethyl)piperidin-1-yl]-1-(3-methylphenyl)-3-(propan-2-yl)-1H-pyrazolo[3,4-b]pyridine-6-carboxylic acid]: at CFTR ΔF508 [2] (setting [3]), the “% Activity at 1 μM (Ieq*)” value is 300%. Besides, the EC50 at CFTR ΔF508 [2] (setting [4]) is 30 nM. In the case of `O=C(O)c1cc(N2CCC(CCN3CCOCC3)CC2)c2c(C3CCC3)nn(-c3ccccc3)c2n1` [compound 575, 3-cyclobutyl-4-{4-[2-(morpholin-4-yl)ethyl]piperidin-1-yl}-1-phenyl-1H-pyrazolo[3,4-b]pyridine-6-carboxylic acid], the concentration for a half-maximal effect (EC50) on CFTR ΔF508 [2] is 100 nM. Further, the “% Activity at 1 μM (AUC**)” value on CFTR ΔF508 [2] (setting [5]) came out at 290%.
